Patent US10694724B2, “Transgenic mouse for the assessment of thyroid hormone (TH) action” (MAGYAR TUDOMÁNYOS AKADÉMIA KÍSÉRLETI ORVOSTUDOMÁNYI KUTATÓ …, priority 2014, dated 2020)
“Also recorded” adds a separate entry of the source.

Key:
Type in all cases: in vivo, mouse
[1] = test system: thyroid hormone receptor isoform specific action (TRβ dominant liver, TRα dominant heart; Luciferase reporter); assay: Testing TR isoform specific agonists: Luciferase activity in liver and heart of line #4 with decreased endogenous thyroid hormone; settings: i.p. 1.53 nM/g BW, after 24 hours
Experimental: FIG. 7. The transgenic mouse model is capable to detect thyroid hormone receptor isoform specific T3 actions. […] Mean±SEM (n=5) ** p<0.01 by t test.
We decreased the endogenous thyroid hormone levels in line #4 by administering methimazole and perchlorate (0.1% methimazole, 0.5% perchlorate) in the drinking water followed by the i.p. injection of 1.53 nM/g BW of GC-24, a TRβ specific agonist (35). Luciferase activity assay was performed using our established protocol (34) modified for tissue samples, that included treatment of mouse tissue with liquid nitrogen, followed by sonication. In vivo Luciferase imaging has been performed on an IVIS Lumina II In vivo Imaging System (PerkinElmer Waltham, Mass., USA) according to the instructions of the manufacturer.

[2] = test system: thyroid hormone (TH) action (3xTRE-TK driven Luciferase reporter); assay: Luciferase activity (luciferase assay) in tissues of THAIM line #4 mice; settings: for Fold (mean ± SEM), induced/basal Luciferase activity / induced Luciferase activity: line #4, T4 5 ug/mouse/day for 3 days i.p.
Experimental: (§1) (A, B, C) T4 treatment (5 ug/mouse/day for 3 days; i.p.) in mouse lines #4, 18, and 23. […] All experiments were performed on homozygote males.
(§2) Unilateral denervation of sympathetic nerves innervating the iBAT has been performed as described in (32). Measurement of the activity of type 2 deiodinase was performed according to the American Thyroid Association Guide to investigating thyroid hormone economy and action in rodent and cell models (33)). THAIM #4 mice underwent unilateral denervation of sympathetic nerves innervating the BAT. Luciferase activity assay was performed using our established protocol (34) modified for tissue samples.

[3] = test system: thyroid hormone (TH) action (3xTRE-TK driven Luciferase reporter); assay: Luciferase activity (luciferase assay) in tissues of THAIM line #18 mice
Experimental: Characterization of the #4, 18 and 23 lines identified thyroid hormone (5 ug of T4/day/mouse for 3 days) induced induction of Luciferase expression in various tissues of homozygote males.
Basal and thyroid hormone induced values and fold changes (induced/basal) of Luciferase activities in tissues of sacrificed animals (Mean±SEM, n=4). P values oft test (basal vs. induced) are provided, * represents statistical significance. (A, B, C) T4 treatment (5 ug/mouse/day for 3 days; i.p.) in mouse lines #4, 18, and 23. Basal activity levels in #18 are higher than other two lines. […] All experiments were performed on homozygote males.
as §2, with “(FIG. 4). Unilateral” for “Unilateral”, “samples. […] This increase was abolished by denervation but TH action was maintained at room temperature (intact vs. denervated). (A). In the denervated samples, this was paralleled by abolished response of D2 activity to cold and maintenance of the basal D2 activity in the denervated lobe at room temperature (B).” for “samples.”

[4] = test system: thyroid hormone (TH) action (3xTRE-TK driven Luciferase reporter); assay: Luciferase activity (luciferase assay) in tissues of THAIM line #23 mice; settings: for Fold (mean ± SEM), induced/basal Luciferase activity / induced Luciferase activity: line #23, T4 5 ug/mouse/day for 3 days i.p.
Experimental: as §1, §2

[5] = Mandibular salivatory gland (MSG)
[6] = line #18, Cerebellum, T4 5 ug/mouse/day for 3 days i.p.
[7] = line #18, Cortex, T4 5 ug/mouse/day for 3 days i.p.
[8] = line #18, HC, T4 5 ug/mouse/day for 3 days i.p.
[9] = line #18, HT, T4 5 ug/mouse/day for 3 days i.p.
[10] = line #18, MBH, T4 5 ug/mouse/day for 3 days i.p.
[11] = line #18, Pit, T4 5 ug/mouse/day for 3 days i.p.

SMILES: Cc1cc(OCC(=O)O)cc(C)c1Cc1ccc(O)c(Cc2ccccc2)c1 [GC-24]
- Luciferase activity in heart ([1]; TRα isoform dominant heart): did not change; also recorded: no significant change
- Luciferase activity in liver ([1]; TRβ isoform dominant liver): significantly increased

SMILES: N[C@@H](Cc1cc(I)c(Oc2cc(I)c(O)c(I)c2)c(I)c1)C(=O)O [T4, thyroxine]
- Fold (mean ± SEM), induced/basal Luciferase activity ([2]; Bone): 2.2 ± 0.18 Fold
- induced Luciferase activity ([2]; Bone): 0.066 RLU/mg protein
- Fold (mean ± SEM), induced/basal Luciferase activity ([2]; Cerebellum (CER)): 2.3 ± 0.41 Fold
- induced Luciferase activity ([2]; Cerebellum (CER)): 2.162 RLU/mg protein
- Fold (mean ± SEM), induced/basal Luciferase activity ([2]; Cortex (CTX)): 1.9 ± 0.30 Fold
- induced Luciferase activity ([2]; Cortex (CTX)): 0.359 RLU/mg protein
- Fold (mean ± SEM), induced/basal Luciferase activity ([2]; Heart): 8.5 ± 0.31 Fold
- induced Luciferase activity ([2]; Heart): 0.030 RLU/mg protein
- Fold (mean ± SEM), induced/basal Luciferase activity ([2]; Hippocampus (HC)): 1.9 ± 0.03 Fold
- induced Luciferase activity ([2]; Hippocampus (HC)): 0.116 RLU/mg protein
- Fold (mean ± SEM), induced/basal Luciferase activity ([2]; Hypothalamus (HT)): 1.3 ± 0.08 Fold
- induced Luciferase activity ([2]; Hypothalamus (HT)): 0.488 RLU/mg protein
- Fold (mean ± SEM), induced/basal Luciferase activity ([2]; Intestine): 2.1 ± 0.30 Fold
- induced Luciferase activity ([2]; Intestine): 9.480 RLU/mg protein
- Fold (mean ± SEM), induced/basal Luciferase activity ([2]; Liver): 1.9 ± 0.14 Fold
- induced Luciferase activity ([2]; Liver): 0.005 RLU/mg protein
- Fold (mean ± SEM), induced/basal Luciferase activity [2, 5]: 7.6 ± 2.60 Fold
- induced Luciferase activity [2, 5]: 0.399 RLU/mg protein
- Fold (mean ± SEM), induced/basal Luciferase activity ([2]; Mediobasal Hypothalamus (MBH)): 1.8 ± 0.20 Fold
- induced Luciferase activity ([2]; Mediobasal Hypothalamus (MBH)): 0.368 RLU/mg protein
- Fold (mean ± SEM), induced/basal Luciferase activity ([2]; Muscle): 11.2 ± 5.7 Fold
- induced Luciferase activity ([2]; Muscle): 0.276 RLU/mg protein
- Fold (mean ± SEM), induced/basal Luciferase activity ([2]; Pituitary (Pit)): 2.3 ± 0.16 Fold
- induced Luciferase activity ([2]; Pituitary (Pit)): 0.791 RLU/mg protein
- Fold (mean ± SEM), induced/basal Luciferase activity ([2]; Skin): 4.0 ± 0.76 Fold
- induced Luciferase activity ([2]; Skin): 2.798 RLU/mg protein
- Fold (mean ± SEM), induced/basal Luciferase activity ([2]; Testicle): 0.8 ± 0.06 Fold
- induced Luciferase activity ([2]; Testicle): 4.09 RLU/mg protein
- Fold (mean ± SEM), induced/basal Luciferase activity ([2]; Thyroid): 1.5 ± 0.07 Fold
- induced Luciferase activity ([2]; Thyroid): 0.176 RLU/mg protein
- Fold (mean ± SEM), induced/basal Luciferase activity ([2]; iBAT): 64.6 ± 8.1 Fold
- induced Luciferase activity ([2]; iBAT): 1.820 RLU/mg protein
- induction of Luciferase expression in the BAT ([2]; line #4 homozygote males, 5 ug of T4/day/mouse for 3 days): striking response
- Fold (mean ± SEM), induced/basal Luciferase activity [3, 6]: 1.8 ± 0.31 Fold
- induced Luciferase activity [3, 6]: 0.063 RLU/mg protein
- Fold (mean ± SEM), induced/basal Luciferase activity [3, 7]: 1.9 ± 1.18 Fold
- induced Luciferase activity [3, 7]: 2.586 RLU/mg protein
- Fold (mean ± SEM), induced/basal Luciferase activity [3, 8]: 2.1 ± 0.25 Fold
- induced Luciferase activity [3, 8]: 3.756 RLU/mg protein
- Fold (mean ± SEM), induced/basal Luciferase activity [3, 9]: 2.8 ± 0.35 Fold
- induced Luciferase activity [3, 9]: 1.589 RLU/mg protein
- Luciferase activity (basal and induced) ([3]; line #18, Liver (cell also covers Heart, iBAT, Bone, Muscle, MSG, Thyroid, Testicle, Intestine), T4 5 ug/mouse/day for 3 days i.p.): no expression
- Fold (mean ± SEM), induced/basal Luciferase activity [3, 10]: 2.2 ± 0.25 Fold
- induced Luciferase activity [3, 10]: 0.602 RLU/mg protein
- Fold (mean ± SEM), induced/basal Luciferase activity [3, 11]: 8.2 ± 0.36 Fold
- induced Luciferase activity [3, 11]: 0.540 RLU/mg protein
- response of Luciferase expression in the pituitary ([3]; line #18 homozygote males, 5 ug of T4/day/mouse for 3 days): intense response
- Fold (mean ± SEM), induced/basal Luciferase activity ([4]; Bone): 0.9 ± 0.56 Fold
- induced Luciferase activity ([4]; Bone): 0.011 RLU/mg protein
- Fold (mean ± SEM), induced/basal Luciferase activity ([4]; CER): 1.9 ± 0.28 Fold
- induced Luciferase activity ([4]; CER): 0.023 RLU/mg protein
- Fold (mean ± SEM), induced/basal Luciferase activity ([4]; CTX): 1.8 ± 0.21 Fold
- induced Luciferase activity ([4]; CTX): 0.065 RLU/mg protein
- Fold (mean ± SEM), induced/basal Luciferase activity ([4]; HC): 1.1 ± 0.32 Fold
- induced Luciferase activity ([4]; HC): 0.040 RLU/mg protein
- Fold (mean ± SEM), induced/basal Luciferase activity ([4]; HT): 2.7 ± 1.35 Fold
- induced Luciferase activity ([4]; HT): 0.144 RLU/mg protein
- Fold (mean ± SEM), induced/basal Luciferase activity ([4]; Heart): 1.0 ± 0.47 Fold
- induced Luciferase activity ([4]; Heart): 0.003 RLU/mg protein
- Fold (mean ± SEM), induced/basal Luciferase activity ([4]; Liver): 1.7 ± 0.19 Fold
- induced Luciferase activity ([4]; Liver): 0.004 RLU/mg protein
- Fold (mean ± SEM), induced/basal Luciferase activity ([4]; MBH): 1.7 ± 0.29 Fold
- induced Luciferase activity ([4]; MBH): 0.240 RLU/mg protein
- Fold (mean ± SEM), induced/basal Luciferase activity ([4]; Muscle): 0.7 ± 0.18 Fold
- induced Luciferase activity ([4]; Muscle): 0.003 RLU/mg protein
- Fold (mean ± SEM), induced/basal Luciferase activity ([4]; Pit): 8.8 ± 0.62 Fold
- induced Luciferase activity ([4]; Pit): 16.926 RLU/mg protein
- Fold (mean ± SEM), induced/basal Luciferase activity ([4]; iBAT): 7.2 ± 1.54 Fold
- induced Luciferase activity ([4]; iBAT): 0.038 RLU/mg protein
- response of Luciferase expression in the pituitary and hypothalamus ([4]; line #23 homozygote males, 5 ug of T4/day/mouse for 3 days): intense response
